Key:
[1] = target: T1, human endothelin A receptor (Homo sapiens, UniProt P25101); assay: Endothelin A receptor inhibitory effect (aequorin light emission, endothelin at EC80); format: cell-based; details: for IC50: CHO-K1-mt aequorin cells expressing human endothelin A receptor, endothelin at EC80, read-out: ETA receptor inhibitory effect; for ETA selectivity (ETB/ETA): ETB IC50 value/ETA IC50 value
T1 construct: expressed in transfected cells; host or cells: CHO-K1-mt aequorin cells
T1 sequence (P25101 21-427): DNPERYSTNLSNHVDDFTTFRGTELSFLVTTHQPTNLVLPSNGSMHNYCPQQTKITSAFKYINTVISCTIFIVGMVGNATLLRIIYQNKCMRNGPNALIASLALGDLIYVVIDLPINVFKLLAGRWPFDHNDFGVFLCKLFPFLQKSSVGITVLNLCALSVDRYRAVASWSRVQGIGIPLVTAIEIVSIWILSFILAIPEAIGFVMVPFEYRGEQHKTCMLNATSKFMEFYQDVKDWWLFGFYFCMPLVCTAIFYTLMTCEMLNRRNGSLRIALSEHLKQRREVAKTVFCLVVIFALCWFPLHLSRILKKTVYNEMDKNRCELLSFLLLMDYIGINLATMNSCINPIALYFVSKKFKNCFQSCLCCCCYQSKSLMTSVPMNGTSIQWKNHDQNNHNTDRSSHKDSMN
Protocol: The inhibitory effect on an endothelin A receptor was studied by the following method.
(§1) CHO-K1-mt aequorin cells forced to express a human endothelin A receptor (Accession Number NP_001948.1) were cultured in an antibiotic-free medium for 18 hours, then treated with PBS-EDTA (5 mM EDTA), centrifuged (2 min, 405×g, room temperature), and then suspended in an assay buffer (DMEM/HAM's F12 with HEPES+0.1% BSA protease free).
(§2) 1×10^6 cells/mL of the cells were incubated at room temperature for 4 hours in the presence of coelenterazine h (Molecular Probes, Inc.) (final concentration: 5 µM). Agonistic reaction based on endothelin was confirmed to determine an endothelin concentration corresponding to EC80.
(§3) Subsequently, 50 µL (10000 cells/well) of the cell suspension treated with coelenterazine h and 50 µL of an assay buffer containing a test substance (final concentration: 0.5% in DMSO) were added to each well of a 96-well plate. 15 minutes later, endothelin was added such that its final concentration was an EC80 concentration. Receptor activity was measured as the quantity of light emission in FDSS6000 (Hamamatsu Photonics K.K.). IC50 values were calculated using XLfit (ID Business Solutions Ltd. (IDBS)).

[2] = target: T2, human endothelin B receptor (Homo sapiens, UniProt P24530); assay: Endothelin B receptor inhibitory effect (aequorin light emission, endothelin at EC80); format: cell-based; details: CHO-K1-mt aequorin cells expressing human endothelin B receptor; endothelin at EC80; read-out: ETB receptor inhibitory effect
T2 construct: expressed in transfected cells; host or cells: CHO-K1-mt aequorin cells
T2 sequence (P24530 27-442): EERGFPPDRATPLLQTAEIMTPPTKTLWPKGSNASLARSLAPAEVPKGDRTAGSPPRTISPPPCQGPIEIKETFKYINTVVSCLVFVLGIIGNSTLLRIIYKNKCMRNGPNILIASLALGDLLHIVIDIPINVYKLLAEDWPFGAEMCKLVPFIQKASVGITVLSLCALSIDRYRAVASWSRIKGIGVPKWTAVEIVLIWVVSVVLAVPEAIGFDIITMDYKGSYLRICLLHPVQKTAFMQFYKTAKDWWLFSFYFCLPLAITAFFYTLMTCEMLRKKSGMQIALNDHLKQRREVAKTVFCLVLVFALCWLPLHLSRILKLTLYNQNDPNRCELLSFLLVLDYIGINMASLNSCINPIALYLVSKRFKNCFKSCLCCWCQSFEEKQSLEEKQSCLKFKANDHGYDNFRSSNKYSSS
Protocol: The inhibitory effect on an endothelin B receptor was studied by the following method.
as §1, with “endothelin B” for “endothelin A”, “Number NP_000106.1)” for “Number NP_001948.1)”
as §2
as §3, with “K.K.).” for “K.K.). IC50 values were calculated using XLfit (ID Business Solutions Ltd. (IDBS)).”

CYP2C9 = target: T3, CYP2C9 (Homo sapiens, UniProt P11712); assay: CYP2C9 inhibitory effect (liver microsome fraction, diclofenac substrate); format: in vitro ADME; details: liver microsome fraction 0.5 mg/mL, diclofenac 2.5 μM
T3 construct: A frozen liver microsome fraction was thawed on ice; from tissue; host or cells: liver microsome fraction
Protocol: The inhibitory effect on CYP2C9 was evaluated by the following method. • (1) A frozen liver microsome fraction was thawed on ice and diluted with a potassium phosphate buffer (PPB) to a final concentration of 0.5 mg/mL. • (2) A substrate for evaluation (diclofenac: D6899 from Sigma-Aldrich Co. LLC) was added thereto such that its final concentration was 2.5 μM. • (3) The mixture was slowly mixed and incubated at 37±1° C. for 5 minutes to prepare a reaction solution. • (4) 801 μL of the reaction solution was dispensed to each tube, and an evaluation compound serially diluted with 0.9 μL of DMSO was added thereto such that its final concentration was 9.1 to 20000 nM (⅓ dilutions with 8 concentrations). In this context, 0.9 μL of DMSO was added to a negative control group, and 0.9 μL of sulfaphenazole (S0758 from Sigma-Aldrich Co. LLC) adjusted to a final concentration of 1 μM with DMSO was added to a positive control group. • (5) After mixing, a 270 μL aliquot was transferred to each of two fresh tubes and incubated in a shaking water bath at 37±1° C. for 5 minutes. • (6) Reaction was started by the addition of 30 μL of 10 mM NADPH, and the tubes were incubated at 37° C.±1° C. for 10 minutes. • (7) The tubes were taken out of the shaking water bath, and the reaction was terminated by the addition of 300 μL of a reaction stop solution. After mixing, the tubes were centrifuged at 1021×g at 4° C. for 20 minutes. • (8) The amount of the substrate for evaluation metabolized was determined by LC-MS/MS to calculate the rate of inhibition at each concentration of the evaluation compound. • (9) IC50 values were calculated using GraphPad Prism5. A sample having an IC50 value of 1 μM or lower was given “++”; a sample having an IC50 value in the range of higher than 1 μM and 10 μM or lower was given “+”; and a sample having an IC50 value of higher than 10 μM was given “−”.

ETA receptor = target: T4, ETA receptor (Homo sapiens, UniProt P25101); details: cited from earlier work
T4 sequence (P25101 21-427): T1 sequence (P25101 21-427)

[3] = pulmonary hypertension associated with connective tissue disease; cited from earlier work
[4] = in vivo; cited from earlier work
[5] = in vivo; cited from earlier work; remark: listed apart in the source

T3 sequence (P11712 whole entry): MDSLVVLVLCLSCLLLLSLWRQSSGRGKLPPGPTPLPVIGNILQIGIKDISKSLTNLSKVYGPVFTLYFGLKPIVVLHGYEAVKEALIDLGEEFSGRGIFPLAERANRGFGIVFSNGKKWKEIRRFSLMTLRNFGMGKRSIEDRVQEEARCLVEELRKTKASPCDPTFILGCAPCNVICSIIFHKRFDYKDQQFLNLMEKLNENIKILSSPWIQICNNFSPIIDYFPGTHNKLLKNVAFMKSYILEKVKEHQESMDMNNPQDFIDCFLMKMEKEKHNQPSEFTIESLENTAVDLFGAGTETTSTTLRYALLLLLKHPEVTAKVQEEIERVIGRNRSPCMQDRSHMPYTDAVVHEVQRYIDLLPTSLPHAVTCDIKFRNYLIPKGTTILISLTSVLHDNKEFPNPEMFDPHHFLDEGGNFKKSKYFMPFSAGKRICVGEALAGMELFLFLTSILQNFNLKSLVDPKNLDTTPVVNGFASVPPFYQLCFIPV

Row | SMILES | IC50 [1] [nM] | ETA selectivity (ETB/ETA) [1] | IC50 [2] [nM] | IC50 (CYP2C9) [nM] | Selective inhibition of ETA receptor in contrast to ETB receptor (ETA receptor) | Drug efficacy in clinical trials [3] | Effect on endothelin concentrations in blood [4] | Peripheral edema [5]
1 | Cc1cc2c(cc1CC(=O)c1sccc1S(=O)(=O)Nc1onc(C)c1Cl)OCO2 [Comparative Example 1, sitaxentan, reference compound] | 1 to 10 | ++ (ETB IC50 value/ETA IC50 value of higher than 5000) | > 5000 | ≤ 1000 | selectively inhibit the ETA receptor | significant drug efficacy | not increase endothelin concentrations in blood | not cause peripheral edema
2 | Cc1cc2c(cc1C#Cc1ncccc1S(=O)(=O)Nc1noc(C)c1C)C(C)OC2 (centres unmarked) [Example 2, 2-((3,6-Dimethyl-1,3-dihydroisobenzofuran-5-yl)ethynyl)-N-(4,5-dimethylisoxazol-3-yl)pyridine-3-sulfonamide] | ≤ 1 | ++ (ETB IC50 value/ETA IC50 value of higher than 5000) | > 5000 | – | – | – | – | –
3 | Cc1cc2c(cc1CC(=O)c1sccc1S(=O)(=O)Nc1onc(C)c1Cl)COC2 [Comparative Example 2, reference compound] | ≤ 1 | ++ (ETB IC50 value/ETA IC50 value of higher than 5000) | > 5000 | ≤ 1000 | – | – | – | –
4 | Cc1cc2c(cc1C#Cc1ncccc1S(=O)(=O)Nc1noc(C)c1C)COC2C (centres unmarked) [Example 11, 2-((1,6-Dimethyl-1,3-dihydroisobenzofuran-5-yl)ethynyl)-N-(4,5-dimethylisoxazol-3-yl)pyridine-3-sulfonamide] | 1 to 10 | – | > 5000 | – | – | – | – | –

— patent US12686676B2, “Compound, endothelin-A receptor antagonist, and pharmaceutical composition” (Alchemedicine, Inc., priority 2021, dated 2026)
